According to US20110105623A1 (Biogenic Innovations, LLC, priority 2009, published 2011):

Columns and labels:
[1] = test system: Chlorella sorokiniana; test: Algal growth by percent transmittance at 750 nm; assay type: cell-based
Description: Two species of Chlorella were examined for growth—Chlorella sorokiniana a freshwater species and Chlorella minutissima a marine species. […] Growth was measured on day 0, 1, 2, 3, 4, 5, 6, 7, 8, 9 and 10. […] The following media were purchased from UTEX Culture Collection of Algae: Enriched Salt Water Medium and Volvox Dextrose Medium.
The algae were grown for 48 hours in the appropriate medium. The initial suspension was enumerated for each alga and is referred to as the starting inoculums. Chlorella sorokiniana was at 381 million cells per milliliter and Chlorella minutissima was at 19 million cells per milliliter. One milliliter of the algal solution was placed into 9 mLs of medium and mixed by vortexing. […] The tube of algae and MSM were incubated at room temperature with exposure to sunlight. […] Each dilution of MSM for each organism was set up in and analyzed in triplicate for each time interval measured. The samples were measured by percent transmittance on a UV/VIS spectrophotometer at wavelength 750 nm. The medium stock was tested for percent transmittance background levels at every time interval were measured. The lower percent transmittance indicated a higher growth factor.

[2] = test system: Acidophilus plus Bifidus milk microorganisms; test: Growth in Acidophilus plus Bifidus milk fortified with MSM; conditions: A/B milk […] MSM
Description: Then samples were evaluated every 7 days for a total of 28 days. […] The milks were bought at a local store. The Acidophilus milk was low fat (Darigold). The Acidophilus plus Bifidus milk contained 2% milkfat (Lucerne). […] The working solutions were held at 4° C. during the study.

## Methylsulfonylmethane [MSM]
[1]; MSM 0.5%, Sample Day 6
  Growth, percent transmittance at 750 nm: 12.5%
[1]; MSM 0.5%, Sample Day 7
  Growth, percent transmittance at 750 nm: 11.9%
[1]; MSM 0.5%, Sample Day 8
  Growth, percent transmittance at 750 nm: 12.2%
[1]; MSM 0.5%, Sample Day 9
  Growth, percent transmittance at 750 nm: 7.5%
[1]; MSM 0.5%, Sample Day 10
  Growth, percent transmittance at 750 nm: 6.4%
[1]; MSM 1%, Sample Day 0
  Growth, percent transmittance at 750 nm: 48.7%
[1]; MSM 1%, Sample Day 1
  Growth, percent transmittance at 750 nm: 42.5%
[1]; MSM 1%, Sample Day 2
  Growth, percent transmittance at 750 nm: 37.5%
[1]; MSM 1%, Sample Day 3
  Growth, percent transmittance at 750 nm: 37.5%
[1]; MSM 1%, Sample Day 4
  Growth, percent transmittance at 750 nm: 17.3%
[1]; MSM 1%, Sample Day 5
  Growth, percent transmittance at 750 nm: 13.5%
[1]; MSM 1%, Sample Day 6
  Growth, percent transmittance at 750 nm: 13.0%
[1]; MSM 1%, Sample Day 7
  Growth, percent transmittance at 750 nm: 12.5%
[1]; MSM 1%, Sample Day 8
  Growth, percent transmittance at 750 nm: 12.4%
[1]; MSM 1%, Sample Day 9
  Growth, percent transmittance at 750 nm: 7.8%
[1]; MSM 1%, Sample Day 10
  Growth, percent transmittance at 750 nm: 6.6%
[1]; MSM 5%, Sample Day 0
  Growth, percent transmittance at 750 nm: 35.6%
[1]; MSM 5%, Sample Day 1
  Growth, percent transmittance at 750 nm: 31.2%
[1]; MSM 5%, Sample Day 2
  Growth, percent transmittance at 750 nm: 27.4%
[1]; MSM 5%, Sample Day 3
  Growth, percent transmittance at 750 nm: 21.4%
[1]; MSM 5%, Sample Day 4
  Growth, percent transmittance at 750 nm: 18.2%
[1]; MSM 5%, Sample Day 5
  Growth, percent transmittance at 750 nm: 15.7%
[1]; MSM 5%, Sample Day 6
  Growth, percent transmittance at 750 nm: 15.9%
[1]; MSM 5%, Sample Day 7
  Growth, percent transmittance at 750 nm: 16.3%
[1]; MSM 5%, Sample Day 8
  Growth, percent transmittance at 750 nm: 17.0%
[1]; MSM 5%, Sample Day 9
  Growth, percent transmittance at 750 nm: 13.7%
[1]; MSM 5%, Sample Day 10
  Growth, percent transmittance at 750 nm: 12.8%
[1]; MSM 10%, Sample Day 0
  Growth, percent transmittance at 750 nm: 31.2%
[1]; MSM 10%, Sample Day 1
  Growth, percent transmittance at 750 nm: 31.3%
[1]; MSM 10%, Sample Day 2
  Growth, percent transmittance at 750 nm: 29.7%
[1]; MSM 10%, Sample Day 3
  Growth, percent transmittance at 750 nm: 28.4%
[1]; MSM 10%, Sample Day 4
  Growth, percent transmittance at 750 nm: 29.0%
[1]; MSM 10%, Sample Day 5
  Growth, percent transmittance at 750 nm: 28.7%
[1]; MSM 10%, Sample Day 6
  Growth, percent transmittance at 750 nm: 27.1%
[1]; MSM 10%, Sample Day 7
  Growth, percent transmittance at 750 nm: 27.6%
[1]; MSM 10%, Sample Day 8
  Growth, percent transmittance at 750 nm: 27.1%
[1]; MSM 10%, Sample Day 9
  Growth, percent transmittance at 750 nm: 76.4%
[1]; MSM 10%, Sample Day 10
  Growth, percent transmittance at 750 nm: 93.8%
[1]; MSM 20%, Sample Day 0
  Growth, percent transmittance at 750 nm: 19.3%
[1]; MSM 20%, Sample Day 1
  Growth, percent transmittance at 750 nm: 21.9%
[1]; MSM 20%, Sample Day 2
  Growth, percent transmittance at 750 nm: 24.1%
[1]; MSM 20%, Sample Day 3
  Growth, percent transmittance at 750 nm: 28.1%
[1]; MSM 20%, Sample Day 4
  Growth, percent transmittance at 750 nm: 31.4%
[1]; MSM 20%, Sample Day 5
  Growth, percent transmittance at 750 nm: 33.6%
[1]; MSM 20%, Sample Day 6
  Growth, percent transmittance at 750 nm: 36.8%
[1]; MSM 20%, Sample Day 7
  Growth, percent transmittance at 750 nm: 40.6%
[1]; MSM 20%, Sample Day 8
  Growth, percent transmittance at 750 nm: 40.8%
[1]; MSM 20%, Sample Day 9
  Growth, percent transmittance at 750 nm: 84.8%
[1]; MSM 20%, Sample Day 10
  Growth, percent transmittance at 750 nm: 96.7%
[1]; MSM […], Sample Day 0
  Growth, percent transmittance at 750 nm: 40.6%
[1]; MSM […], Sample Day 1
  Growth, percent transmittance at 750 nm: 43.1%
[1]; MSM […], Sample Day 2
  Growth, percent transmittance at 750 nm: 44.9%
[1]; MSM […], Sample Day 3
  Growth, percent transmittance at 750 nm: 43.8%
[1]; MSM […], Sample Day 4
  Growth, percent transmittance at 750 nm: 26.1%
[1]; MSM […], Sample Day 5
  Growth, percent transmittance at 750 nm: 10.3%
[1]; MSM […], Sample Day 6
  Growth, percent transmittance at 750 nm: 10.9%
[1]; MSM […], Sample Day 7
  Growth, percent transmittance at 750 nm: 11.0%
[1]; MSM […], Sample Day 8
  Growth, percent transmittance at 750 nm: 11.2%
[1]; MSM […], Sample Day 9
  Growth, percent transmittance at 750 nm: 8.4%
[1]; MSM […], Sample Day 10
  Growth, percent transmittance at 750 nm: 6.0%
[2]; Day 7
  Log Growth of Lactobacillus acidophilus in Milk fortified with MSM: 10.42 logs
[2]; Day 21
  Log Growth of Lactobacillus acidophilus in Milk fortified with MSM: 5.37 logs
[2]; Day 28
  Log Growth of Lactobacillus acidophilus in Milk fortified with MSM: 3.94 logs
[2]; hour 0
  Log Growth of Lactobacillus acidophilus in Milk fortified with MSM: 6.41 logs
[2]; hour 8
  Log Growth of Lactobacillus acidophilus in Milk fortified with MSM: 8.67 logs
[2]; hour 24
  Log Growth of Lactobacillus acidophilus in Milk fortified with MSM: 9.16 logs
[2]; hour 32
  Log Growth of Lactobacillus acidophilus in Milk fortified with MSM: 8.87 logs
[2]; hour 48
  Log Growth of Lactobacillus acidophilus in Milk fortified with MSM: 8.3 logs
[2]; hour 56
  Log Growth of Lactobacillus acidophilus in Milk fortified with MSM: 8.56 logs
[2]; hour 72
  Log Growth of Lactobacillus acidophilus in Milk fortified with MSM: 8.45 logs
[2]; hour 80
  Log Growth of Lactobacillus acidophilus in Milk fortified with MSM: 9.82 logs
[2]; hour 96
  Log Growth of Lactobacillus acidophilus in Milk fortified with MSM: 8.61 logs
[2]; hour 104
  Log Growth of Lactobacillus acidophilus in Milk fortified with MSM: 8.92 logs
